Measured values from patent publication US7341836B2, “Modified cyclic nucleotide gated ion channels” (The Regents of the University of Colorado, priority 2001, dated 2008).
“Also recorded” adds a separate entry of the source.

Experiments:
PDE III = details: cited from earlier work
PDE IV = details: cited from earlier work
PDE I = details: cited from earlier work
[1] = system: PDE activity in GH4C1 cells; assay: Effect of PDE inhibitors, forskolin and VIP on cAMP levels (Ca2+ influx through CNG channels); type: cell-based, rat; details: for d(ΔF/F0)/dt: basal cAMP, inhibitor concentration (μM)
Method: To further test the utility of this approach, PDE activity in excitable GH4C1 pituitary cells was examined. In all of the experiments shown (See, FIGS. 13-14, and Table 2), 1 μM nimodipine was added at time zero to block Ca^2+ influx though voltage-gated Ca^2+ channels (triggered by membrane depolarization due to Ca^2+ and Na^+ influx through CNG channels). […] FIGS. 13 and 14 each depict experiments done on a single batch of cells. As before, similar results were obtained on three other batches. In the experiments that produced the data shown in Table 2, cAMP concentrations were monitored using Ca^2+ influx through C460W/E583M channels. […] Either 100 μM IBMX or vehicle (-IBMX; control) were added at time zero. Then, 50 μM forskolin were added at 180 seconds d(ΔF/F0)/dt, which is proportional to the Ca^2+ influx rate, was estimated as described in the Examples. Data are provided as mean±standard error. IBMX or vehicle was added at 60 seconds (first arrow in FIG. 13). Either 10 μM forskolin or 100 nM VIP were added at 240 seconds (second arrow in FIG. 13). In the absence of IBMX, large forskolin or VIP-induced increases in Ca^2+ influx were observed. […] This level of basal AC activity was quite different from that observed in HEK-293 cells (See, FIGS. 9 and 10). 1 μM nimodipine was added at time 0 to block endogenous voltage-gated Ca^2+ channels.
To identify the PDE family or families that regulate the local cAMP concentration in GH4C1 cells, cAMP accumulation was monitored in the presence and absence of PDE inhibitors (See, Table 2). Again, the high cAMP affinity C460W/E583M channels were used. PDE inhibitors were added at 60 s. Although the addition of IBMX alone triggered Ca^2+ influx, 10 μM forskolin were added at 240 s as a positive control for CNG channel activity. […] This PDE is likely to have a low Km for cAMP because it is capable of regulating cAMP at concentrations too low for the WT or Δ61-90/C460W/E583M channels to detect. Thus, it is contemplated that a Ca^2+-CaM stimulated PDE (type I) is primarily responsible for controlling basal cAMP signals in GH4C1 cells.
In addition, PDE activity was monitored using Δ61-90/C460W/E583M channels to detect changes in cAMP concentration (See, FIG. 14). PDE inhibitors and forskolin were added as described above. With this construct, it was not possible to observe changes in cAMP concentration due to inhibition of PDE activity alone. […] Inhibitors specific to other PDE types had no effect on the forskolin-induced Ca^2+ influx (data not shown). […] It is contemplated that Ca^2+ influx through the C460W/E583M channels was saturated at cAMP concentrations below the Km for this PDE. Thus, it is contemplated that there are two different PDE types that regulate local cAMP signals in GH4C1 cells: a low Km, 8-methoxymethyl-IBMX sensitive PDE (type I); and a high Km, RO-20-1724-, rolipram-sensitive PDE (type IV).
GH4C1 rat pituitary cells (ATCC) were maintained in 13 mL Ham's F-10 medium (Life Technologies) supplemented with 14.3 mM NaHCO3, 15% donor horse serum (Gemini), and 2.5% fetal bovine serum, pH 6.8, in 75 cm^2 flasks at 37° C. in a humidified atmosphere of 95% air and 5% CO2. Cells were split weekly (1:4) and washed with fresh medium twice weekly. Cells were plated at ˜60% confluence in 100 mm culture dishes twenty-four hours prior to infection with the CNG-channel-encoding adenovirus constructs (multiplicity of infection=50 plaque forming units per cell). Forty-eight hours post-infection cells were detached, resuspended in serum-containing medium, and assayed within 12 hours.
In this Example, experiments conducted to examine the response of excitable GH4C1 pituitary cells to stimulation by either forskolin or the hormone vasoactive intestinal peptide (VIP), in the presence of absence of PDE inhibitors are described. […]

PDE VII = target: T1, PDE VII (UniProt Q9QXQ1); details: cited from earlier work
T1 sequence (Q9QXQ1 1-446): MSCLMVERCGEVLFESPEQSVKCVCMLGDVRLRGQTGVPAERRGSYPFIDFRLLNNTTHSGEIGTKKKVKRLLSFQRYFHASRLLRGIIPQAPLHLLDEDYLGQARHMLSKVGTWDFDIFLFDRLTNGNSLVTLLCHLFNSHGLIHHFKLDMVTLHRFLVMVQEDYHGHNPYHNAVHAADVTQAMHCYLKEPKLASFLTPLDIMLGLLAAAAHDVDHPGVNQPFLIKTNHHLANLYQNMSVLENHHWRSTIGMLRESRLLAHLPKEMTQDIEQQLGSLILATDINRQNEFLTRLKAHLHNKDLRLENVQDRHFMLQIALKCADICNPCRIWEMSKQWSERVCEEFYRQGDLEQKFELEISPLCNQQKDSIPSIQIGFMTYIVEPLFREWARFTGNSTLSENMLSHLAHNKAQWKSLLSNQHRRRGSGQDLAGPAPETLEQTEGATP

PDE IX = target: T2, PDE IX (UniProt O70628); details: read-out: IC50, PDE IX; cited from earlier work
T2 sequence (O70628 1-534): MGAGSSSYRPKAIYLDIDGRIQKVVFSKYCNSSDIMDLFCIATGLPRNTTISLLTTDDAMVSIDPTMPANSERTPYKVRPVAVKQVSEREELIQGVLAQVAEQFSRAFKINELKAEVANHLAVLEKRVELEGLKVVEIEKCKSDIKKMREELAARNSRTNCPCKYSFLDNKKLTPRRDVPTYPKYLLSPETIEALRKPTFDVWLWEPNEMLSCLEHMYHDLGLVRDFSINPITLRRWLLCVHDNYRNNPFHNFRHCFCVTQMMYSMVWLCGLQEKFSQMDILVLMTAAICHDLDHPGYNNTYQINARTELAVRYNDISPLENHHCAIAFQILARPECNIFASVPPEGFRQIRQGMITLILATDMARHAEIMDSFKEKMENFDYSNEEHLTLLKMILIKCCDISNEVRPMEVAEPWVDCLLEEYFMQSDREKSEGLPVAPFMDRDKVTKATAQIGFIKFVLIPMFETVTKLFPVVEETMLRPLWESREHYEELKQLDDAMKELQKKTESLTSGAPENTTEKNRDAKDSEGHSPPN

PDE VIII = target: T3, PDE VIII (Mus musculus, UniProt O88502); details: cited from earlier work
T3 construct: host or cells: heterologously expressed
T3 sequence (O88502 1-823): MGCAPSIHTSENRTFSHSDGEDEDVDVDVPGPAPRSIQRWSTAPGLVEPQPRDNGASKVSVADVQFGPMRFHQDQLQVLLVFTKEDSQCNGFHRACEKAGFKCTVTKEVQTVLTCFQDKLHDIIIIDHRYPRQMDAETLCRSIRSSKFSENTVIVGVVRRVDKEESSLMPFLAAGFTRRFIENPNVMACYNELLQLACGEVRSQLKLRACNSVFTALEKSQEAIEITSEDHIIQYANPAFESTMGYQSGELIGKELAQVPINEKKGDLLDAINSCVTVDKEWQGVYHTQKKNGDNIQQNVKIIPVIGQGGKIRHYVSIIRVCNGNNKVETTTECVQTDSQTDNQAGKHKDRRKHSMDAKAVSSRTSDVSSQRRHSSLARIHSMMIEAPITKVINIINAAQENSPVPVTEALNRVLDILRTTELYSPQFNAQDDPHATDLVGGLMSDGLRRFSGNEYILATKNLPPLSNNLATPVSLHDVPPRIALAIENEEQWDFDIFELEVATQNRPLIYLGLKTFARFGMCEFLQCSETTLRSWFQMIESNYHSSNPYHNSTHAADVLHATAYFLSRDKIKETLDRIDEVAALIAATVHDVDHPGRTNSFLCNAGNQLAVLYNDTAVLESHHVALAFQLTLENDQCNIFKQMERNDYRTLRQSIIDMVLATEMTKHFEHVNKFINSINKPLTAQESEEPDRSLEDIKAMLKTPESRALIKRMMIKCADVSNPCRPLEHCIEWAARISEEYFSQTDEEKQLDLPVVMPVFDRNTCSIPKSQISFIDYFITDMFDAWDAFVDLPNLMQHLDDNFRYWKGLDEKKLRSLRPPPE

PDE VI = details: cited from earlier work

Row | Structure (SMILES) | IC50 (PDE III) [µM] | IC50 (PDE IV) [µM] | IC50 (PDE I) [µM] | Ca2+ influx induced by the PDE inhibitor alone (basal cAMP) ([1]; C460W/E583M channels, no AC stimulation) | d(ΔF/F0)/dt ([1]; C460W/E583M channels) [s⁻¹] | effect on forskolin-induced Ca2+ influx / PDE activity ([1]; Δ61-90/C460W/E583M channels, 10 μM forskolin) | IC50 (PDE VII) [µM] | IC50 (PDE IX) [µM] | IC50 (PDE VIII) [µM] | IC50 (PDE VI) [µM]
1 | COCc1nc2c([nH]1)c(=O)n(C)c(=O)n2CC(C)C [8-methoxymethyl-IBMX] | 69 | > 100 | 2 to 8 | induced Ca^2+ influx through CNG channels | 0.0025 ± 0.0009 | significantly inhibited PDE activity; also recorded: increase forskolin-induced Ca^2+ influx through CNG channels |  |  |  | 
2 | CCCOc1ccccc1-c1nc2nn[nH]c2c(=O)[nH]1 [Zaprinast] | 10 |  | 3 to 10 |  | 0 |  | > 50 | 29 to 35 | > 100 | 0.15
